The assay addresses T1, Dopamine beta hydroxylase (Homo sapiens, UniProt P09172).
T1 construct: 125 μl of plasma; tissue Instituto Português do Sangue Transplantação; host or cells: human plasma from healthy donors
T1 sequence (P09172 40-617 limits assumed): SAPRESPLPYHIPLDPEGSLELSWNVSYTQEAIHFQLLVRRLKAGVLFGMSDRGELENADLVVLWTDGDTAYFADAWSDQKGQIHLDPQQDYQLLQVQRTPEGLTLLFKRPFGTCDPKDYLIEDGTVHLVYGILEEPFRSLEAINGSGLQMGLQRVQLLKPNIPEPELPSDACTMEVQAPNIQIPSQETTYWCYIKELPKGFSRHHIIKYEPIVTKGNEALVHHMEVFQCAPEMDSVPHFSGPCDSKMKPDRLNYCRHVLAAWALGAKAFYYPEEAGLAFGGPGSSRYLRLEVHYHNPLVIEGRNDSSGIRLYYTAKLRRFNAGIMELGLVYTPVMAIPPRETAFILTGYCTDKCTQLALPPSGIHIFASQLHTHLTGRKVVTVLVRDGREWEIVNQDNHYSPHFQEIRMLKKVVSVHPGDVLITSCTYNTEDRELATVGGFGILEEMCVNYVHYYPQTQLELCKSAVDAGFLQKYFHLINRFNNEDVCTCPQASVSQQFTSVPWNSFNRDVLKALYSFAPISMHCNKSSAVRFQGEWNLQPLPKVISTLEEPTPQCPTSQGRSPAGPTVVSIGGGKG
Briefly: Dopamine beta hydroxylase activity in human plasma. Format: biochemical. Conditions: for Plasma (0.01 μM), activity in % of control: inhibitor 0.01 μM; for Plasma (0.1 μM), activity in % of control: inhibitor 0.1 μM. In outline: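 Octopamine production from tyramine over 45 min at 37° C, measured photometrically at 330 nm after SCX extraction and periodate oxidation against an octopamine standard curve, indicates plasma DβH activity. Compounds tested at final 10, 100 and 1000 nM in human plasma, pH 5.0 cofactor buffer, 10 min preincubation; results as % of control.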

Experimental findings from patent publication US11434242B2, “Dopamine-b-hydroxylase inhibitors” (BIAL-PORTELA & Cª, S.A., priority 2017, dated 2022) are described below.

For the compound `CN(C(=O)Cc1c2n(c(=S)n1C)C[C@@H](c1c(F)ccc(F)c1F)C2)C1CCOC1` (stereo partly drawn) [Example 374, N-methyl-2-((R)-2-methyl-3-thioxo-6-(2,3,6-trifluorophenyl)-2,5,6,7-tetrahydro-3H-pyrrolo[1,2-c]imidazol-1-yl)-N-(tetrahydrofuran-3-yl)acetamide], the “Plasma (0.01 μM), activity in % of control” value is on record as 97.4 % of control and the “Plasma (0.1 μM), activity in % of control” value was 50.0 % of control.

`CN(C(=O)Cc1c2n(c(=S)n1C)C[C@@H](c1c(F)c(F)cc(F)c1F)C2)C1CCOC1` (stereo partly drawn) [Example 375, N-methyl-2-((R)-2-methyl-6-(2,3,5,6-tetrafluorophenyl)-3-thioxo-2,5,6,7-tetrahydro-3H-pyrrolo[1,2-c]imidazol-1-yl)-N-(tetrahydrofuran-3-yl)acetamide]: the “Plasma (0.01 μM), activity in % of control” value is given as 90.0 % of control and the “Plasma (0.1 μM), activity in % of control” value is on record as 40.7 % of control.

As for `O=C(Cc1[nH]c(=S)n2c1C[C@H](c1c(F)ccc(F)c1F)C2)NC1CCOCC1` [Example 376, (R)—N-(tetrahydro-2H-pyran-4-yl)-2-(3-thioxo-6-(2,3,6-trifluorophenyl)-2,5,6,7-tetrahydro-3H-pyrrolo[1,2-c]imidazol-1-yl)acetamide], the “Plasma (0.01 μM), activity in % of control” value is 116.3 % of control and the “Plasma (0.1 μM), activity in % of control” value was 59.3 % of control.

For `O=C(Cc1[nH]c(=S)n2c1C[C@H](c1c(F)c(F)cc(F)c1F)C2)NC1CCOCC1` [Example 377, (R)—N-(tetrahydro-2H-pyran-4-yl)-2-(3-thioxo-6-(2,3,5,6-tetrafluorophenyl)-2,5,6,7-tetrahydro-3H-pyrrolo[1,2-c]imidazol-1-yl)acetamide], the “Plasma (0.01 μM), activity in % of control” value is reported as 102.0 % of control and the “Plasma (0.1 μM), activity in % of control” value is on record as 56.8 % of control.

As for `CN(C(=O)Cc1[nH]c(=S)n2c1C[C@H](c1c(F)c(F)cc(F)c1F)C2)C1CCOCC1` [Example 378, (R)—N-methyl-2-(6-(2,3,5,6-tetrafluorophenyl)-3-thioxo-2,5,6,7-tetrahydro-3H-pyrrolo[1,2-c]imidazol-1-yl)-N-(tetrahydro-2H-pyran-4-yl)acetamide], the “Plasma (0.01 μM), activity in % of control” value is listed as 110.2 % of control and the “Plasma (0.1 μM), activity in % of control” value is reported as 52.6 % of control.

With `CN(C(=O)Cc1[nH]c(=S)n2c1C[C@H](c1c(F)ccc(F)c1F)C2)C1CCOCC1` [Example 379, (R)—N-methyl-2-(6-(2,3,6-trifluorophenyl)-3-thioxo-2,5,6,7-tetrahydro-3H-pyrrolo[1,2-c]imidazol-1-yl)-N-(tetrahydro-2H-pyran-4-yl)acetamide], the “Plasma (0.01 μM), activity in % of control” value is given as 108.7 % of control and the “Plasma (0.1 μM), activity in % of control” value is on record as 50.1 % of control.

Take `CN(C(=O)Cc1[nH]c(=S)n2c1C[C@@H](c1c(F)ccc(Cl)c1F)C2)C1CCOCC1` [Example 380, (S)-2-(6-(3-chloro-2,6-difluorophenyl)-3-thioxo-2,5,6,7-tetrahydro-3H-pyrrolo[1,2-c]imidazol-1-yl)-N-methyl-N-(tetrahydro-2H-pyran-4-yl)acetamide]: the “Plasma (0.01 μM), activity in % of control” value is on record as 74.9 % of control and the “Plasma (0.1 μM), activity in % of control” value is listed as 27.4 % of control.

In the case of `CN(C(=O)Cc1[nH]c(=S)n2c1[C@@H]1C[C@]1(c1c(F)ccc(Cl)c1F)C2)C1CCOCC1` [Example 381, 2-((5aS,6aR)-5a-(3-chloro-2,6-difluorophenyl)-3-thioxo-2,3,5,5a,6,6a-hexahydrocyclopropa[3,4]pyrrolo[1,2-c]imidazol-1-yl)-N-methyl-N-(tetrahydro-2H-pyran-4-yl)acetamide], the “Plasma (0.01 μM), activity in % of control” value is 30.0 % of control and the “Plasma (0.1 μM), activity in % of control” value is given as 3.2 % of control.

In the case of `Cn1c(CC(=O)N[C@@H]2CCCOC2)c2n(c1=S)C[C@H](c1c(F)ccc(Br)c1F)C2` [Example 382, 2-((S)-6-(3-bromo-2,6-difluorophenyl)-2-methyl-3-thioxo-2,5,6,7-tetrahydro-3H-pyrrolo[1,2-c]imidazol-1-yl)-N—((R)-tetrahydro-2H-pyran-3-yl)acetamide], the “Plasma (0.01 μM), activity in % of control” value is 37.6 % of control and the “Plasma (0.1 μM), activity in % of control” value is 6.0 % of control.

Turning to `CN(C(=O)Cc1c2n(c(=S)n1C)C[C@H](c1c(F)ccc(Cl)c1F)C2)C1CCOC1` (stereo partly drawn) [Example 383, 2-((S)-6-(3-chloro-2,6-difluorophenyl)-2-methyl-3-thioxo-2,5,6,7-tetrahydro-3H-pyrrolo[1,2-c]imidazol-1-yl)-N-methyl-N-(tetrahydrofuran-3-yl)acetamide], the “Plasma (0.01 μM), activity in % of control” value is reported as 65.6 % of control and the “Plasma (0.1 μM), activity in % of control” value is listed as 14.8 % of control.

For the compound `CN(C(=O)Cc1[nH]c(=S)n2c1C[C@@H](c1c(F)ccc(Cl)c1F)C2)C1CCOC1` (stereo partly drawn) [Example 384, 2-((S)-6-(3-chloro-2,6-difluorophenyl)-3-thioxo-2,5,6,7-tetrahydro-3H-pyrrolo[1,2-c]imidazol-1-yl)-N-methyl-N-(tetrahydrofuran-3-yl)acetamide], the “Plasma (0.01 μM), activity in % of control” value was 104.5 % of control and the “Plasma (0.1 μM), activity in % of control” value is recorded as 43.4 % of control.

On to `Cn1c(CC(=O)N[C@H]2CCOC2)c2n(c1=S)C[C@H](c1c(F)ccc(Cl)c1F)C2` [Example 385, 2-((S)-6-(3-chloro-2,6-difluorophenyl)-2-methyl-3-thioxo-2,5,6,7-tetrahydro-3H-pyrrolo[1,2-c]imidazol-1-yl)-N—((S)-tetrahydrofuran-3-yl)acetamide], for which the “Plasma (0.01 μM), activity in % of control” value is recorded as 68.1 % of control and the “Plasma (0.1 μM), activity in % of control” value is on record as 19.3 % of control.

`O=C(Cc1[nH]c(=S)n2c1C[C@H](c1c(F)c(F)cc(F)c1F)C2)N[C@@H]1CCCOC1` [Example 386, N—((R)-tetrahydro-2H-pyran-3-yl)-2-((R)-3-thioxo-6-(2,3,5,6-tetrafluorophenyl)-2,5,6,7-tetrahydro-3H-pyrrolo[1,2-c]imidazol-1-yl)acetamide]: the “Plasma (0.01 μM), activity in % of control” value is given as 101.8 % of control and the “Plasma (0.1 μM), activity in % of control” value is on record as 79.4 % of control.

On to `CN1CCC(NC(=O)Cc2c3n(c(=S)n2C)C[C@@H](c2c(F)ccc(F)c2F)C3)C1=O` (stereo partly drawn) [Example 388, N-(1-methyl-2-oxopyrrolidin-3-yl)-2-((R)-2-methyl-3-thioxo-6-(2,3,6-trifluorophenyl)-2,5,6,7-tetrahydro-3H-pyrrolo[1,2-c]imidazol-1-yl)acetamide], for which the “Plasma (0.01 μM), activity in % of control” value is on record as 80.8 % of control and the “Plasma (0.1 μM), activity in % of control” value is on record as 71.1 % of control.

Turning to `CN1C[C@@H](NC(=O)Cc2c3n(c(=S)n2C)C[C@@H](c2c(F)ccc(F)c2F)C3)CC1=O` [Example 389, 2-((R)-2-methyl-3-thioxo-6-(2,3,6-trifluorophenyl)-2,5,6,7-tetrahydro-3H-pyrrolo[1,2-c]imidazol-1-yl)-N—((S)-1-methyl-5-oxopyrrolidin-3-yl)acetamide], the “Plasma (0.01 μM), activity in % of control” value was 75.2 % of control and the “Plasma (0.1 μM), activity in % of control” value was 33.1 % of control.

For the compound `Cn1c(CC(=O)N2CC[C@@H](C#N)C2)c2n(c1=S)C[C@@H](c1c(F)ccc(F)c1F)C2` [Example 390, (R)-1-(2-((R)-2-methyl-3-thioxo-6-(2,3,6-trifluorophenyl)-2,5,6,7-tetrahydro-3H-pyrrolo[1,2-c]imidazol-1-yl)acetyl)pyrrolidine-3-carbonitrile], the “Plasma (0.01 μM), activity in % of control” value is 75.0 % of control and the “Plasma (0.1 μM), activity in % of control” value is recorded as 52.0 % of control.

With `O=C(Cc1[nH]c(=S)n2c1[C@@H]1C[C@]1(c1c(F)ccc(Cl)c1F)C2)N[C@@H]1CCOC1` [Example 392, 2-((5aS,6aR)-5a-(3-chloro-2,6-difluorophenyl)-3-thioxo-2,3,5,5a,6,6a-hexahydrocyclopropa[3,4]pyrrolo[1,2-c]imidazol-1-yl)-N—((R)-tetrahydrofuran-3-yl)acetamide], the “Plasma (0.01 μM), activity in % of control” value was 62.3 % of control and the “Plasma (0.1 μM), activity in % of control” value is recorded as 13.2 % of control.

As for `O=C(Cc1[nH]c(=S)n2c1C[C@H](c1c(F)c(F)cc(F)c1F)C2)NC1COC1` [Example 393, (R)—N-(oxetan-3-yl)-2-(6-(2,3,5,6-tetrafluorophenyl)-3-thioxo-2,5,6,7-tetrahydro-3H-pyrrolo[1,2-c]imidazol-1-yl)acetamide], the “Plasma (0.01 μM), activity in % of control” value is 90.6 % of control and the “Plasma (0.1 μM), activity in % of control” value was 65.7 % of control.

As for `Cn1c(CC(=O)NC2COC2)c2n(c1=S)C[C@@H](c1c(F)c(F)cc(F)c1F)C2` [Example 394, (R)-2-(2-methyl-6-(2,3,5,6-tetrafluorophenyl)-3-thioxo-2,5,6,7-tetrahydro-3H-pyrrolo[1,2-c]imidazol-1-yl)-N-(oxetan-3-yl)acetamide], the “Plasma (0.01 μM), activity in % of control” value is 92.1 % of control and the “Plasma (0.1 μM), activity in % of control” value is 47.6 % of control.
